The values that follow come from publication PMC12073159, “Inhibition Mechanism of Mulberry Prenylated Flavonoids Sanggenone D/Kuwanon G Against α-Glucosidase and the Regulation of Glucose via GLUT4 Pathway” (Nutrients, 2025).

In data set [1] the target is α-glucosidase. As to the kind of experiment: α-glucosidase inhibitory activity (p-NPG, absorbance at 405 nm). In kind it is biochemical. As to conditions: 1 U/mL α-glucosidase, pH 6.8, 37 °C, p-NPG substrate; read-out: IC50 (semi-inhibitory concentration). Here is the method:
Subsequently, 50 μL of 2 mmol/L p-NPG was added, and the mixture was incubated at 37 °C for 20 min. Finally, 50 μL of 1 mol/L Na2CO3 was added to an ice bath for 5 min to terminate the reaction. The absorbance was measured at 405 nm, and the α-glucosidase inhibitory activity was calculated according to Formula (1). All experiments were performed in triplicate.(1) Inhibition rate of enzyme activity/%=(1−Aa−Ab/Ac−Ad)×100%
Aa is the absorbance of the sample group, Ab is the absorbance of the sample background group (equal volume of buffer instead of enzyme solution), Ac is the absorbance of the control group (equal volume of buffer instead of the sample solution), and Ad is the absorbance of the control background group (equal volume of buffer instead of the sample and enzyme solution).

Data set [2] has as its system α-glucosidase. Put plainly: Inhibition kinetics assay (Lineweaver–Burk). In kind it is biochemical. As to conditions: for Inhibition type: Lineweaver–Burk plots; for Ki: inhibitory constant on α-glucosidase. Here is the method: The inhibition assay of α-glucosidase was adapted from MORTEZA, with some modification. A total of 50 μL of α-glucosidase solution (1 U/mL) was added to 96-well plates, and 50 μL of sample solution with different concentrations (sanggenone D: 0, 20, 100, 200 μg/mL; kuwanon G: 0, 10, 20, 40 μg/mL) was incubated at 37 °C for 10 min. Subsequently, different concentrations of pNPG solution were added and incubated at 37 °C for 20 min. Finally, sodium carbonate solution (50 μL, […]) was added to terminate the reaction. Colorimetry was performed at 405 nm using a spectrophotometer to determine the change in absorbance of the enzymatic reaction system. The reversible inhibitory effect types of sanggenone D and kuwanon G on the enzyme were analyzed by the Lineweaver–Burk equation. The relevant parameters were calculated using Formulas (2)–(4).
In the formula, V represents the reaction rate, and Vm represents the maximum reaction rate. [I] is the concentration of the compound sample, and [S] is the substrate concentration. Km represents the Michaelis constant, and KI and KIS represent the inhibitory constants of the compound sample on α-glucosidase and the α-glucosidase–substrate complex, respectively.

Data set [3] concerns α-glucosidase. Put plainly: Fluorescence quenching spectroscopy (Stern–Volmer). The data set is classed as binding. As for the experimental part: A total of 100 μL of 1 U/mL α-glucosidase extract was mixed with […] of different concentrations (sanggenone D: 0, 1, 5, 10, 20, 50, 60 μg/mL; kuwanon G: 0, 1, 5, 10, 20, 40, 60 μg/mL) and incubated at three temperatures of 298 K, 304 K, and 310 K for 5 min. Then, the mixture were scanned with fluorescence spectroscopy (SpectraMax i3x, Molecular Devices, LLC., San Jose, CA, USA). The excitation wavelength was set at 280 nm, the emission wavelength was 300–500 nm, and the widths of both excitation and emission slits were 5 nm. The fluorescence quenching parameters were calculated according to the following equations.
Stern–Volmer dynamic collision quenching equation:(5) F0/F=1+KSVQ=1+Kqτ0Q (6) lgF0−F/F=lgKa+nlg[Q]
F0 and F represent the fluorescence intensity peaks of α-glucosidase without and with the compound, respectively; [Q] is the sample concentration; and τ0 is the protein’s average lifetime (10^−8 s).

The subject of data set [4] is HepG2 cells. As to the kind of experiment: CCK-8 toxicity test of HepG2 cells. The data set is classed as cell-based, human. To be noted: 24 h. As for the experimental part:
DMEM complete medium was configured with 88% DMEM high glucose medium, 10% fetal bovine serum, 1% double antibodies, and 1% non-essential amino acids. HepG2 cells were seeded in the complete medium and incubated at 37 °C with 5% CO2. When the cell confluence grew to 80–90%, the passage was carried out at a ratio of 1:3. According to the method of Cao et al., a hyperglycemic model was established through insulin induction. HepG2 cells in the logarithmic growth stage were inoculated with 4 × 10^4 cells per well in a 96-well plate and cultured at 37 °C and 5% carbon dioxide for 24 h. After the cell coverage reached 80%, 100 µL of sanggenone D and kuwanon G with different concentrations were added for 24 h. Then, 100 µL CCK-8/complete culture solution (1:9) was added to each well, and the absorbance at 450 nm was measured by an enzymoleter after 1 h of culture. The toxicity test was conducted in triplicate.(8) Cell survival rate (%)=Asample/Acontrol×100%
In general terms: Tetrazolium dyes change colour on reduction, which living cells bring about.

Data set [5] concerns HepG2 cells. Put plainly: Cellular glucose, TC and TG content in high-glucose model HepG2 cells. In kind it is cell-based, human. To be noted: 20, 80 μg/mL, 24 h, compared with the model group. Here is the method: DMEM complete medium was configured with 88% DMEM high glucose medium, 10% fetal bovine serum, 1% double antibodies, and 1% non-essential amino acids. HepG2 cells were seeded in the complete medium and incubated at 37 °C with 5% CO2. When the cell confluence grew to 80–90%, the passage was carried out at a ratio of 1:3. According to the method of Cao et al., a hyperglycemic model was established through insulin induction.
The sample concentration (sanggenone D: 20, 80 μg/mL; kuwanon G: 20, 80 μg/mL) used in this experiment was determined by a CCK8 experiment. HepG2 cells were inoculated with 2 × 10^5 in a 12-well plate and cultured for 24 h. After being attached to the well, the samples containing different concentrations were replaced and the cells were treated for 24 h. The relevant indexes were determined by the kit method according to the instructions of the manufacturer. Each measurement was performed in triplicate.

The next data set concerns GLUT4. As to the kind of experiment: Western blotting, GLUT4 expression in HepG2 cells. To be noted: compared with the model group. In kind it is cell-based, human. Here is the method:
The tissue proteins were extracted with cold total protein extraction buffer (TPEB) [98% RIPA buffer (Solarbio, Beijing, China), 1% phosphatase inhibitor mix (Sangon Biotech, Shanghai, China), and 1% protease inhibitor mix (Cell Signaling Technology, Danvers, MA, USA)], and protein concentration was determined by the bicinchoninic acid assay (BCA) method. A total of 20 μg of protein samples were separated by SDS-PAGE and transferred to a polyvinylidene difluoride (PVDF) membrane. The membrane was washed with PBST for 5 min, then incubated with 5% skim milk at room temperature for 1 h. Subsequently, the membrane was cleaned with PBST five times for 5 min and incubated overnight at 4 °C with the primary antibodies [ACC (Zenbio #381131; 1:750 dilution), AMPK (Zenbio #380431; 1:500 dilution), p-AMPK (Zenbio #340763; 1:750 dilution), CPT-1 (proteintech #15184-1-AP 1:3000 dilution), and GLUT4 (Zenbio #347063; 1:1000 dilution)]. Finally, the membrane was incubated with the secondary antibody (Abmart #T40104, 1:3000 dilution) at room temperature for 1 h. Chemiluminescent visualization of the protein bands was achieved using an ECL system (Millipore, Burlington, MA, USA) and documented with Image Lab software for PC Version 6.1 (Bio-Rad, South Granville, NSW, Australia). Densitometric analysis of the resulting bands was conducted using ImageJ 2 software.
For orientation: Immunoblotting shows a protein as a band on a membrane.

In another data set the test system is p-AMPK. As to the kind of experiment: Western blotting, p-AMPK in HepG2 cells. To be noted: compared with the model group. In kind it is cell-based, human.
In a further data set the test system is CPT-1. As to the kind of experiment: Western blotting, CPT-1 expression in HepG2 cells. The data set is classed as cell-based, human.
For data set [6], the target named is α-glucosidase. As to conditions: cited from earlier work.

“Also recorded” adds a separate entry of the source.

What is called Ki is the equilibrium dissociation constant of an inhibitor or competing ligand from its target. On to `CC(C)=CCc1c(-c2ccc(O)cc2O)oc2c([C@H]3C=C(C)C[C@@H](c4ccc(O)cc4O)[C@@H]3C(=O)c3ccc(O)cc3O)c(O)cc(O)c2c1=O` [kuwanon G], for which the IC50 at α-glucosidase [1] is 38.3 µM. In the data set with α-glucosidase [2], the Inhibition type entry is on record as “competitive inhibition type” and the Ki was 83.5 µM. In the data set with α-glucosidase [3] (298 K), the KSV is reported as 5.41 ± 0.01 ×10^4 L/mol, the Ka was 36.85 ± 0.17 ×10^3 L/mol and the Kq is on record as 5.41 ± 0.01 ×10^12 L/mol. Moreover, in the data set on α-glucosidase [3] (304 K), the KSV was 4.91 ± 0.03 ×10^4 L/mol, the Ka is 194.98 ± 0.42 ×10^3 L/mol and the Kq is given as 4.91 ± 0.03 ×10^12 L/mol. Moreover, in the data set on α-glucosidase [3] (310 K), the KSV was 3.35 ± 0.01 ×10^4 L/mol, the Ka is on record as 1984.27 ± 0.33 ×10^3 L/mol and the Kq was 3.35 ± 0.01 ×10^12 L/mol. The “Survival percentage of HepG2 cells” value in the data set on HepG2 cells [4] (concentration less than 80 μg/mL) is “above 90%”. For the same compound, in the data set on HepG2 cells [5], the “Glucose content in HepG2 cells” value is on record as “significantly reduced”, the “TC content in HepG2 cells” value is “significantly reduced” and the “TG content in HepG2 cells” value is given as “significantly reduced”. Further, in the data set on GLUT4, the GLUT4 expression entry was “notably up-regulated”. The p-AMPK result in the data set with p-AMPK was “significantly promoted”. Besides, the “Expression of CPT-1” value with CPT-1 was “significantly upregulated”.

With `COc1cc(/C=C/C(=O)O)ccc1O` [ferulic acid], on α-glucosidase [6], the “IC50 for α-glucosidase” value is 866 µg/mL.

As to `CC(C)=CCC12Oc3cc(O)ccc3C1(O)Oc1cc(O)c(C3C=C(C)CC(c4ccc(O)cc4O)C3C(=O)c3ccc(O)cc3O)c(O)c1C2=O` (centres unmarked) [sanggenone D], on α-glucosidase [1], the IC50 is 45.1 µM. Also, in the data set on α-glucosidase [2], the Inhibition type result is “non-competition/anti-competition mixed inhibition; also recorded: mixed inhibition of noncompetitive and anticompetitive”; the Ki amounted to 253 µM. For the same compound, in the data set on α-glucosidase [3] (298 K), the KSV was 3.90 ± 0.04 ×10^4 L/mol, the Ka is 7.28 ± 0.21 ×10^3 L/mol and the Kq is 3.90 ± 0.04 ×10^12 L/mol. For the same compound, in the data set with α-glucosidase [3] (304 K), the KSV is given as 3.24 ± 0.02 ×10^4 L/mol, the Ka was 16.73 ± 0.14 ×10^3 L/mol and the Kq is recorded as 3.24 ±0.02 ×10^12 L/mol. In addition, in the data set with α-glucosidase [3] (310 K), the KSV is given as 2.56 ± 0.02 ×10^4 L/mol, the Ka was 180.18 ± 0.30 ×10^3 L/mol and the Kq is recorded as 2.56 ±0.02 ×10^12 L/mol. In the data set on HepG2 cells [4] (concentration less than 100 μg/mL), the “Survival percentage of HepG2 cells” value is “above 90%”. In the data set with HepG2 cells [5], the “Glucose content in HepG2 cells” value was “significantly reduced”, the “TC content in HepG2 cells” value is on record as “significantly reduced” and the “TG content in HepG2 cells” value is listed as “significantly reduced”. The GLUT4 expression result in the data set with GLUT4 is listed as “notably up-regulated”. For the same compound, the “Expression of CPT-1” value in the data set on CPT-1 was “significantly upregulated”.
